Data from patent US20170320837A1, “METHOD FOR TREATING INFLAMMATORY DISORDERS” (Synta Pharmaceuticals Corp., priority 2006, published 2017).
Entries after “also recorded” stand apart in the source; their conditions may differ.

Key:
glucocorticoid receptor [1] = assay: Glucocorticoid receptor levels in PBMCs of rats after four days of intravenous dosing, immunoblot; format: in vivo, Sprague-Dawley (SD) rats; conditions: daily intravenously for four days, 17-DMAG 6 mg/kg, Paclitaxel 5 mg/kg, Compound 264 80 mg/kg, Compound 226 50 mg/kg
Experimental: The test compounds were administered daily intravenously via tail vein for four days. […] All rats were sacrificed at the study day 5. About 1-2 mL of blood samples were collected per animal. The blood samples were then pulled together as a group for PBMC isolation.

glucocorticoid receptor [2] = assay: Glucocorticoid receptor levels in human PBMCs, immunoblot (Example 114); format: cell-based; conditions: human PBMCs, 0, 1, 5, 25, or 100 nM, 16 hours
Experimental: (§1) The whole blood samples from healthy human volunteer and male SD rat were collected and the PBMCs were isolated immediately as follows. 5 ml of whole blood was diluted with an equal volume of sterile 1× PBS. The diluted blood was overlayed carefully into a sterile centrifuge tube without disturbing the bottom layer that containing 5 ml of Ficoll-paque plus density gradient solution. The layered blood was centrifuged at 1500×g for 30 minutes at room temperature. The middle thin layer containing PBMCs was carefully removed, transferred to another sterile centrifuge tube, and washed twice with PBS to remove […]. Isolated rat and human PBMCs were cultured in 10% fetal bovine serum/DMEM.
(§2) The rat and human PBMCs were treated with DMSO (control), Compound 226, Compound 287, or 17-DMAG at concentrations of 0, 1, 5, 25, or 100 nM (in DMSO) for 16 hours. The cells were then collected and rinsed in ice-cold PBS and stored in liquid nitrogen until further analysis.
(§3) PBMC were prepared in Western lysis buffer (10 mmol/L HEPES, 42 mmol/L KCl, 5 mmol/L MgCl2, 0.1 mmol/L EDTA, 0.1 mmol/L EGTA, 1 mmol/L DTT, 1% Triton X-100, freshly supplemented with 1× protease inhibitor cocktail from Pierce, Rockford, Ill.). Lysate protein concentrations were quantified by bicinchoninic acid assay (Pierce) and normalized. Equal amounts of protein were loaded onto 10% NuPAGE Bis-Tris Gels (Invitrogen) and subsequently transferred onto polyvinylidene difluoride membranes. The membranes were blocked in 5% milk in TBST. Primary antibody of glucocorticod receptor from Santa Cruz Biotechnology, Inc. was added and incubated at room temperature for 1 hour with shaking. The blots were washed extensively in TBST before secondary antibodies were added for overnight incubation at 4° C. with gentle shaking. The blots were again washed extensively and developed with SuperSignal West Femto substrate (Pierce). The immunoblot analysis was performed to measure the level of total GRs by Quantity One software from Bio-Rad.

glucocorticoid receptor [3] = assay: Glucocorticoid receptor levels in human PBMCs, renal cells and cancer cell lines, immunoblot (Example 115); format: cell-based
Experimental: Normal human renal proximal tubule epithelial cells and tumor cell lines of MV-4-11, Kasumi-1, and Hela were obtained from Cambrex Bioproducts and American Type Culture Collection, respectively. Cells were cultured with 10% fetal bovine serum/DMEM.
The whole blood samples from healthy human volunteer were collected and the PBMCs were isolated immediately as described in Example 116. Isolated human PBMCs were cultured in 10% fetal bovine serum/DMEM.
as §2, with “Human PBMCs, kasumi-1, My-4-11, Hela,” for “The rat”, “renal proximal tubule epithelial cells” for “PBMCs”, “287,” for “287, or”, “0,” for “0, 1,”
as §3, with “PBMC, renal and tumor cell pellets” for “PBMC”, “0.1. mmol/LEGTA,” for “0.1 mmol/L EGTA,”, “glucocorticoid” for “glucocorticod”, “(Pierce).” for “(Pierce). The immunoblot analysis was performed to measure the level of total GRs by Quantity One software from Bio-Rad.”

glucocorticoid receptor [4] = assay: Glucocorticoid receptor levels in rat PBMCs, immunoblot; format: cell-based; conditions: rat PBMCs, 0, 1, 5, 25, or 100 nM, 16 hours
Experimental: as §1, §2, §3

Her2 = assay: Degradation of Her2 in BT-474 cells, immunoblot (Method 1); format: cell-based, Human; conditions: overnight
Experimental: Human high-Her2 breast carcinoma BT474 (HTB-20), SK-BR-3 (HTB-30) and MCF-7 breast carcinoma (HTB-22) from American Type Culture Collection, VA, USA were grown in Dulbecco's modified Eagle's medium with 4 mM L-glutamine and antibiotics (100 IU/ml penicillin and 100 ug/ml streptomycine; GibcoBRL). To obtain exponential cell growth, cells were trypsinized, counted and seeded at a cell density of 0.5×10^6 cells/ml regularly, every 3 days. All experiments were performed on day 1 after cell passage. • B. Degradation of Her2 in Cells After Treatment with a Compound of the Invention • 1. Method 1
BT-474 cells were treated with 0.5 μM, 2 μM, or 5 μM of 17AAG (a positive control) or 0.5 μM, 2 μM, or 5 μM of Compound 108 or Compound 49 overnight in DMEM medium. After treatment, each cytoplasmic sample was prepared from 1×10^6 cells by incubation of cell lysis buffer (#9803, cell Signaling Technology) on ice for 10 minutes. The resulting supernatant used as the cytosol fractions were dissolved with sample buffer for SDS-PAGE and run on a SDS-PAGE gel, blotted onto a nitrocellulose membrane by using semi-dry transfer. Non-specific binding to nitrocellulose was blocked with 5% skim milk in TBS with 0.5% Tween at room temperature for 1 hour, then probed with anti-Her2/ErB2 mAb (rabbit IgG, #2242, Cell Signaling) and anti-Tubulin (T9026, Sigma) as housekeeping control protein. HRP-conjugated goat anti-rabbit IgG (H+L) and HRP-conjugated horse anti-mouse IgG (H+L) were used as secondary Ab (#7074, #7076, Cell Signaling) and LumiGLO reagent, 20× Peroxide (#7003, Cell Signaling) was used for visualization.

Hsp90 protein = assay: Malachite Green Assay of ATPase activity of Hsp90 protein; format: biochemical
Experimental: Hsp90 protein was obtained from Stressgen (Cat #SPP-770). Assay buffer: 100 mM Tris-HCl, Ph 7.4, 20 mM KCl, 6 mM MgCl2. […] Malachite green reagent was added to the reaction. […] The plate was read by an ELISA reader with an absorbance at 620 nm.

GR (human recombinant) = target: T1, GR (human recombinant) (Homo sapiens, UniProt P04150); assay: GR competitive assay, fluorescence polarization with Fluormone GS1; format: binding; conditions: tested up to 10 uM
T1 construct: purchased Invitrogen P2816
T1 sequence (P04150 1-777): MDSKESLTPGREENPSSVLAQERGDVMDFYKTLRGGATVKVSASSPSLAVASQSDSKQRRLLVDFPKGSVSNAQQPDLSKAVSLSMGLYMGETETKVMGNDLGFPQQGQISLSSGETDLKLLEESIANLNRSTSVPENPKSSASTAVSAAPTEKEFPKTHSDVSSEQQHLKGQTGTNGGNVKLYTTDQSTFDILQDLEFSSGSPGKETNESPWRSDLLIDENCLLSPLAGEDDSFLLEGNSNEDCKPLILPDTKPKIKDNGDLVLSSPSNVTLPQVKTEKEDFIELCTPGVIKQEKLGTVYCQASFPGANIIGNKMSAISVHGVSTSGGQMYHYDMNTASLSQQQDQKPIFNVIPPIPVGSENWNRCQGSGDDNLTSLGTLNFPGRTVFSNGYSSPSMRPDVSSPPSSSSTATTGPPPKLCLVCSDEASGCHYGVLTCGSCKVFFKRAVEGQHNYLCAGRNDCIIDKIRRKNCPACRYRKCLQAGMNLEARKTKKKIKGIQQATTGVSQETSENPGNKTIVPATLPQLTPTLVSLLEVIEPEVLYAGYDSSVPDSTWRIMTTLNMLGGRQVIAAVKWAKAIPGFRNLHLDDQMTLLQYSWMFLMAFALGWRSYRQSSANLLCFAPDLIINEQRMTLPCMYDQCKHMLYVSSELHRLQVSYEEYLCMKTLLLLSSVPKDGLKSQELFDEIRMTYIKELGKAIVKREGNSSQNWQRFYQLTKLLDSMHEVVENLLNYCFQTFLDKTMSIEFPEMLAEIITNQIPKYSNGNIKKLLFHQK
Experimental: To determine whether the compounds of the invention bind directly to the glucocorticoid receptor, GR competitive assay was performed using a kit from Invitrogen (Cat #P2816). GR (human recombinant) was added to a fluorescent glucocorticoid (Fluormone™ GS1) ligand with a test compound at various concentrations (a serial dilution of the test compound was done on a 96-well plate) and incubated for 2-4 hours in the dark. […] The shift in polarization value in the presence of a test compound was used to determine relative affinity of test compounds for glucocorticoid receptors. The buffer plus Fluormone™ GS1 and glucocorticoid receptor in the absent of s test compound was used as negative control presenting 0% competition. […] The IC50 was calculated based on the inhibition rate of binding activity of the testing compound.

glucocorticoid receptors = target: T2, glucocorticoid receptors (Homo sapiens, UniProt P04150); assay: Competitive binding assay with tritium labeled dexamethason in Hela S3 cells (legend of FIG. 3)
T2 construct: endogenous in cells; host or cells: HeLa S3
T2 sequence (P04150 1-777): T1 sequence (P04150 1-777)

[5] = Kasumi-1 AML cancer cells, 0, 5, 25, or 100 nM, 16 hrs
[6] = MV-4-11 AML cancer cells, 0, 5, 25, or 100 nM, 16 hrs
[7] = cancer cells as well as normal PBMCs and renal cells
[8] = human PBMCs, 0, 5, 25, or 100 nM, 16 hrs
[9] = human renal cells, 0, 5, 25, or 100 nM, 16 hrs

CO[C@H]1/C=C\C=C(/C)C(=O)NC2=CC(=O)C(NCCN(C)C)=C(C[C@@H](C)C[C@H](OC)[C@H](O)[C@@H](C)/C=C(\C)[C@@H]1OC(N)=O)C2=O [Compound 17-DMAG, 17-DMAG, reference compound]
expression of glucocorticoid receptor (GR) in isolated PBMC compared with vehicle (glucocorticoid receptor [1]): decreased | expression of glucocorticoid receptors (glucocorticoid receptor [2]): dose dependent decrease; also recorded: decreased the expression of glucocorticoid receptor in a dose dependent manner | suppression of glucocorticoid receptors, cancer cells compared with normal cells (glucocorticoid receptor [3]): more pronounced in cancer cell than in normal cells | expression of glucocorticoid receptors (glucocorticoid receptor [3]; HeLa cells, 0, 5, 25, or 100 nM, 16 hrs): dose dependent decrease | expression of glucocorticoid receptors (glucocorticoid receptor [3]; [5]): dose dependent decrease | expression of glucocorticoid receptors (glucocorticoid receptor [3]; [6]): dose dependent decrease | expression of glucocorticoid receptors (glucocorticoid receptor [3]; [7]): suppress the expression of glucocorticoid receptors | expression of glucocorticoid receptors (glucocorticoid receptor [3]; [8]): dose dependent decrease | expression of glucocorticoid receptors (glucocorticoid receptor [3]; [9]): dose dependent decrease | expression of glucocorticoid receptors (glucocorticoid receptor [4]): dose dependent decrease; also recorded: decreased the expression of glucocorticoid receptor in a dose dependent manner

CCc1cc(-c2nnc(S)n2-c2cccc3ccccc23)c(O)cc1O [Compound 49, 3-(2,4-Dihydroxy-5-ethyl-phenyl)-4-(naphthalen-1-yl)-5-mercapto-triazole]
degradation of Her2 (Her2; 0.5 μM): partial degradated | degradation of Her2 (Her2; 2 μM): complete degradation | degradation of Her2 (Her2; 5 μM): complete degradation

Oc1ccc(-c2nnc(S)n2-c2cccc3ccccc23)c(O)c1 [Compound 108, 3-(2,4-Dihydroxy-phenyl)-4-(naphthalen-1-yl)-5-mercapto-triazole]
degradation of Her2 (Her2; 0.5 μM): partially degradated | degradation of Her2 (Her2; 2 μM): partially degradated | degradation of Her2 (Her2; 5 μM): almost completely degraded | ATPase activity of Hsp90 (Hsp90 protein; 4 μM): significant inhibition | ATPase activity of Hsp90 (Hsp90 protein; 40 μM): even greater inhibition of ATPase activity of Hsp90 than geldanamycin

CCCN(C)c1cc(-n2c(S)nnc2-c2cc(C(C)C)c(O)cc2O)ccc1OC [Compound 264]
expression of glucocorticoid receptor (GR) in isolated PBMC compared with vehicle (glucocorticoid receptor [1]): decreased | IC50 (GR (human recombinant)): > 10 µM

CC(C)c1cc(-c2nnc(O)n2-c2ccc(N(C)CCN(C)C)cc2)c(O)cc1O [Compound 287]
expression of glucocorticoid receptors (glucocorticoid receptor [2]): dose dependent decrease; also recorded: decreased the expression of glucocorticoid receptor in a dose dependent manner | suppression of glucocorticoid receptors, cancer cells compared with normal cells (glucocorticoid receptor [3]): more pronounced in cancer cell than in normal cells | expression of glucocorticoid receptors (glucocorticoid receptor [3]; [5]): dose dependent decrease | expression of glucocorticoid receptors (glucocorticoid receptor [3]; [6]): dose dependent decrease | expression of glucocorticoid receptors (glucocorticoid receptor [3]; [7]): suppress the expression of glucocorticoid receptors | expression of glucocorticoid receptors (glucocorticoid receptor [3]; [8]): dose dependent decrease | expression of glucocorticoid receptors (glucocorticoid receptor [3]; [9]): dose dependent decrease | expression of glucocorticoid receptors (glucocorticoid receptor [4]): dose dependent decrease; also recorded: decreased the expression of glucocorticoid receptor in a dose dependent manner

CC(=O)O[C@H]1C(=O)[C@@]2(C)[C@H]([C@H](OC(=O)c3ccccc3)[C@]3(O)C[C@H](OC(=O)[C@H](O)[C@@H](NC(=O)c4ccccc4)c4ccccc4)C(C)=C1C3(C)C)[C@]1(OC(C)=O)CO[C@@H]1C[C@@H]2O [Paclitaxel, reference compound]
expression of glucocorticoid receptor (GR) in isolated PBMC compared with vehicle (glucocorticoid receptor [1]): decreased | displacement of tritium labeled dexamethason (glucocorticoid receptors): did not displace the tritium labeled dexamethason

C[C@@H]1C[C@H]2O[C@@H]2/C=C\C=C\C(=O)Cc2c(Cl)c(O)cc(O)c2C(=O)O1 [radicicol]
displacement of tritium labeled dexamethason (glucocorticoid receptors): did not displace the tritium labeled dexamethason
